This is an account of results in ChEMBL document CHEMBL5331052, “Discovery of a novel water-soluble, rapid-release triptolide prodrug with improved drug-like properties and high efficacy in human acute myeloid leukemia” (Eur J Med Chem, 2022).

A word on the solubility: it is how much of the substance goes into solution per volume. As a reminder, the AUC(0-t) is the area under the concentration-time curve up to a stated or last time point. Low readings indicate low exposure, high ones high exposure. One may read the Tmax as the time at which the peak concentration occurs. As a reminder, the Cmax is the highest concentration seen after dosing. As usually defined, the IC50 is the concentration needed to halve the response being measured.

Data set [1] can be described thus: Chemical stability of the compound in water assessed as parent compound remaining at 2 mg/ml measured immediately by HPLC analysis. The format is physicochemical. The note with it: read-out: Stability.
Data set [2] can be described thus: Aqueous solubility of compound at 1 to 10 mg/ml by HPLC analysis. The following applies: water; dose 1-10 mg/ml. The format is physicochemical.
Data set [3] in a line: Chemical stability of the compound in water assessed as parent compound remaining at 2 mg/ml measured after 4 hrs by HPLC analysis. The format is physicochemical. The note with it: read-out: Stability.
Data set [4] is described as follows: Prodrug conversion in Sprague-Dawley rat plasma assessed as triptolide release at 50 ug/ml measured after 30 mins by HPLC analysis. It is filed as ADME, cell-free. The note with it: 0.5 h, dose 50 µg/ml.
Data set [5] in a line: Prodrug conversion in human plasma assessed as triptolide release at 50 ug/ml measured after 45 mins by HPLC analysis. It is filed as ADME, cell-free. The following applies: 0.75 h, dose 50 µg/ml.
A short description of data set [6]: Prodrug conversion in human plasma assessed as triptolide release at 1 mg/ml measured after 1.5 hrs by HPLC analysis. It is filed as ADME, cell-free.
The test system of data set [7] is MV4-11. The data set can be described thus: Antitumor activity against human MV4-11 cells xenografted in BALB/c nude mouse assessed as tumor growth inhibition at 0.5 mg/kg, po measured once every 2 days for 20 days relative to control. The format is functional. The note with it: MV4-11, 480 h, time 20 day, read-out: TGI.
The subject of data set [8] is MV4-11. In words: Antitumor activity against human MV4-11 cells xenografted in BALB/c nude mouse assessed as tumor growth inhibition at 1 mg/kg, po measured once every 2 days for 20 days relative to control. The note with it: MV4-11, 480 h, time 20 day, read-out: TGI. It is filed as functional. In general terms: Xenograft models place foreign cells or tissue in a host animal.

Data set [9] in a line: AUC (0 to t) in Sprague-Dawley rat at 1.0 mg/kg, po administered via oral gavage and measured upto 24 hrs by LC-MS/MS analysis. It is filed as ADME, organism-based. Also on record: dose 1 mg/kg, time < 24 hrs, route po. The note with it: in vivo.
The nature of data set [10]: Tmax in Sprague-Dawley rat at 1.0 mg/kg, po administered via oral gavage and measured upto 24 hrs by LC-MS/MS analysis. It is filed as ADME, organism-based. The following applies: in vivo.
The nature of data set [11]: Cmax in Sprague-Dawley rat at 1.0 mg/kg, po administered via oral gavage and measured upto 24 hrs by LC-MS/MS analysis. It is filed as ADME, organism-based. Also on record: dose 1 mg/kg, time < 24 hrs, route po. The following applies: in vivo.
A further data set has as its system THP-1. The data set can be described thus: Antiproliferative activity against human THP-1 cells assessed as inhibition of cell growth measured after 48 hrs by CCK8 assay. It is filed as functional, cell-based. The note with it: THP-1, 48 h. In general terms: Formazan colour is commonly taken as a measure of viable cells.
For data set [12], the system named is MV4-11. The data set can be described thus: Antiproliferative activity against human MV4-11 cells assessed as cell growth inhibition measured after 48 hrs by CCK8 assay. The following applies: MV4-11, 48 h. It is filed as functional, cell-based.
Data set [13] has as its system MV4-11. The data set can be described thus: Antitumor activity against human MV4-11 cells xenografted in BALB/c nude mouse assessed as tumor growth inhibition at 180 microg/kg/day, IG measured everyday for 11 days relative to control. The following applies: MV4-11, po, 264 h, at 180 µg/kg/day, time 11 day, read-out: TGI. The format is functional.
Data set [14] can be described thus: Prodrug conversion in Sprague-Dawley rat plasma assessed as triptolide release at 500 ng/ml measured after 1.5 hrs by UPLC-MS/MS analysis. It is filed as ADME, cell-free.

`CC(C)[C@]12O[C@H]1[C@@H]1O[C@]13[C@]1(O[C@H]1C[C@H]1C4=C(CC[C@@]13C)C(=O)OC4)[C@@H]2OC(=O)CCCOC(=O)CN1CCOCC1.Cl`: in data set [1], the remaining at 0 h, 2 mg/ml worked out at 95%. The compound further came in with a solubility in data set [2] of 7490 µg/mL. Also, in [3], the remaining at 4 h, 2 mg/ml was determined as 94.8%. The Drug metabolism entry in [4], in data set [5] and in data set [6] was “Metabolite_Detected” throughout.

With `CCc1nc(C(N)=O)c(Nc2ccc(N3CCC(N4CCN(C)CC4)CC3)c(OC)c2)nc1NC1CCOCC1` [GILTERITINIB], in the data set with MV4-11 [7], the inhibition in vivo at 0.5 mg/kg was 48.3%. The inhibition in vivo at 1 mg/kg with MV4-11 [8] came out at 72%.

Regarding `CC(C)[C@]12O[C@H]1[C@@H]1O[C@]13[C@]1(O[C@H]1C[C@H]1C4=C(CC[C@@]13C)C(=O)OC4)[C@@H]2O` [TRIPTOLIDE], the AUC(0-t) at 24 h in data set [9] was determined as 31.9 ng·h/mL. Besides, the Tmax in [10] came out at 26.4 min. This compound also came in with a Cmax in data set [11] of 15.9 ng/mL. For the same compound, the IC50 turned out to be 7.04 nM in the data set on THP-1 and 12 nM with MV4-11 [12]. Besides, the inhibition in vivo at 0.18 mg/kg/day in the data set with MV4-11 [13] turned out to be 91.5%.

On to `CC(C)[C@]12O[C@H]1[C@@H]1O[C@]13[C@]1(O[C@H]1C[C@H]1C4=C(CC[C@@]13C)C(=O)OC4)[C@@H]2OC(=O)CCC(=O)[O-].[Na+]` [OMTRIPTOLIDE SODIUM], for which the Drug metabolism result in data set [14] is “Metabolite_Detected”.
